Source: US6048854A, “2,3-diaminopropionic acid derivative” (Sumitomo Pharmaceuticals Company, Limited, priority 1993, dated 2000)
Like-named read-outs stand apart in the source and are kept apart here.

Experiments:
platelet aggregation [1] = assay: Platelet aggregation inhibitory activity (ADP-induced, human platelet rich plasma); assay type: cell-based; conditions: Homo sapiens
Procedure, shortened: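 Citrated human platelet-rich plasma […] was stirred with test compound for 2 min at 37 °C. Aggregation was then induced with ADP at 3 μg/ml final and monitored by nephelometry. IC50 is the concentration giving 50% inhibition of aggregation.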

platelet aggregation [2] = assay: Platelet aggregation inhibitory activity (ex vivo) after oral administration; assay type: in vivo; conditions: Cavia porcellus, guinea pig, oral 0.1 mg/kg, ADP 10 μg/ml
Description: A canula for collecting blood was inserted into the left common carotid artery of a guinea pig which was anesthetized with pentobarbital (30 mg/kg, i.p.). The blood (1 ml) was taken with a syringe containing 1/10 volume of 3.8% sodium citrate (Kettin-citrate, manufactured by Kokusai Shiyaku Ltd.), and the platelet aggregation ability thereof was measured (as a value before administration). Then, a test compound was orally administered to the guinea pig at a dose of 0.1 mg/kg in a volume of 5 ml/kg, and the blood was collected periodically likewise at 0.5, 1, 2, 4 and 6 hours after the administration of the test compound, and the platelet aggregation ability thereof was measured.
The determination of the platelet aggregation ability was carried out by turbidimetry using a Hematracer (Niko Bioscience) as follows. That is, the blood was centrifuged at 4500 rpm at room temperature for 10 seconds, and the supernatant was considered as platelet rich plasma (PRP), and the precipitate was centrifuged at 11000 rpm for two minutes and its supernatant was considered as platelet poor plasma (PPP), and the photo-transmittance of the PRP and the PPP was adjusted to 0%, and 100%, respectively. A cubet containing PRP (200 μl) was inserted to a measurement well, and […] at 1000 rpm at 37° C. for two minutes, and thereto was added a platelet aggregator; ADP (adenosine diphosphate, Sigma Ltd., 20 μl, final concentration; 10 μg/ml), and the maximum aggregation rate was measured. From the maximum aggregation rate before the administration of the test compound (MAR control) and the maximum aggregation rate after the administration of the test compound (MAR sample), the platelet aggregation inhibitory rate of each test compound was estimated according to the following equation.
Inhibitory rate (%)=(1-(MAR sample/MAR control))×100
The periodical change in the platelet aggregation inhibitory rate of each test compound at a dose of 0.1 mg/kg of oral administration is shown in Table 5.

human fibronectin = assay: Binding assay of platelet to adhesive protein: fibronectin (receptor binding inhibition); conditions: Table 4; fixed activated human platelets, 37° C., 60 minutes
Description: (§1) The blood was taken out from the elbow vein of a normal volunteer, and mixed with 1/10 volume of 3.8% sodium citrate. The blood was centrifuged at 1,000 rpm (150 g) for 10 minutes, and the supernatant is collected as a platelet rich plasma (PRP). The precipitates are centrifuged at 11,000 rpm (6000 g) for two minutes, and the supernatant is collected as a platelet poor plasma (PPP). To PRP is added prostaglandin I2 (PGl2) at a final concentration of 50 ng/ml, and the mixture was centrifuged at 11000 rpm for two minutes to give human platelet. The platelet was activated by washing with 3.8 mM HEPES-buffer (pH 7.4, Tyrode-HEPES buffer) containing 0.14 M sodium chloride, 2.7 mM potassium chloride, 3.7 mM sodium dihydrogen phosphate, 0.98 mM magnesium chloride, 1 mg/ml glucose, 50 ng/ml PGl2 and 0.35% bovine serum albumin (BSA), adding thereto 5 μM epinephrine, and 30 μM ADP (adenosine diphosphate), followed by being allowed to stand at room temperature for five minutes. To the activated platelet was added 0.05% p-formaldehyde, and the mixture was allowed to stand at room temperature for 30 minutes to give the fixed platelet, which was suspended in Tyrode-HEPES buffer to give a platelet suspension of a concentration of 2×10^8 ml^-1.
(§2) Human fibrinogen from which fibronectin was previously removed by passing through gelatin-cepharose, human fibronectin or human vitronectin was diluted with 0.1 M aqueous sodium hydrogen carbonate solution to a concentration of 5 μg/ml, and the protein solution is put into a 96-well microplate at a volume of 200 μl/well. The microplate was allowed to stand at 4° C. overnight. The plate was washed with phosphate buffered saline (PBS), and subjected to blocking with 3% BSA at 37° C. for one hour. To the plate were added a platelet suspension (final concentration, 10^8 ml^-1) and a test compound of various concentrations (total volume, 200 μl/well), and the plate was incubated at 37° C. for 60 minutes. The plate was treated with 1000-fold diluted enzyme (HRP)-labelled anti-mouse IgG polyclonal antibody at 37° C. for 60 minutes, and thereto was added HRP chromogenic substrate (0.1 M phosphate buffer containing 0.4 mg/ml O-phenylenediamine,0.01% hydrogen peroxide, 0.1 M citric acid, pH 5), and reacted at room temperature for 15 minutes. The reaction was terminated by adding thereto 4.5 M sulfuric acid at a volume of 25 μl/well, and the absorbance at 490 nm was measured.

human vitronectin = assay: Binding assay of platelet to adhesive protein: vitronectin (receptor binding inhibition); conditions: Table 4; fixed activated human platelets, 37° C., 60 minutes; read-out: receptor binding inhibition (IC50), Bitronectin
Description: as §1, §2

human fibrinogen = target: T1, human fibrinogen (Homo sapiens, UniProt P05106+P08514); assay: Binding assay of platelet to adhesive protein: fibrinogen (receptor binding inhibition); conditions: Table 4; fixed activated human platelets, 37° C., 60 minutes
T1 construct: centrifuged at 11000 rpm for two minutes to give human platelet; from tissue
T1 sequence (P08514 32-887 limits assumed): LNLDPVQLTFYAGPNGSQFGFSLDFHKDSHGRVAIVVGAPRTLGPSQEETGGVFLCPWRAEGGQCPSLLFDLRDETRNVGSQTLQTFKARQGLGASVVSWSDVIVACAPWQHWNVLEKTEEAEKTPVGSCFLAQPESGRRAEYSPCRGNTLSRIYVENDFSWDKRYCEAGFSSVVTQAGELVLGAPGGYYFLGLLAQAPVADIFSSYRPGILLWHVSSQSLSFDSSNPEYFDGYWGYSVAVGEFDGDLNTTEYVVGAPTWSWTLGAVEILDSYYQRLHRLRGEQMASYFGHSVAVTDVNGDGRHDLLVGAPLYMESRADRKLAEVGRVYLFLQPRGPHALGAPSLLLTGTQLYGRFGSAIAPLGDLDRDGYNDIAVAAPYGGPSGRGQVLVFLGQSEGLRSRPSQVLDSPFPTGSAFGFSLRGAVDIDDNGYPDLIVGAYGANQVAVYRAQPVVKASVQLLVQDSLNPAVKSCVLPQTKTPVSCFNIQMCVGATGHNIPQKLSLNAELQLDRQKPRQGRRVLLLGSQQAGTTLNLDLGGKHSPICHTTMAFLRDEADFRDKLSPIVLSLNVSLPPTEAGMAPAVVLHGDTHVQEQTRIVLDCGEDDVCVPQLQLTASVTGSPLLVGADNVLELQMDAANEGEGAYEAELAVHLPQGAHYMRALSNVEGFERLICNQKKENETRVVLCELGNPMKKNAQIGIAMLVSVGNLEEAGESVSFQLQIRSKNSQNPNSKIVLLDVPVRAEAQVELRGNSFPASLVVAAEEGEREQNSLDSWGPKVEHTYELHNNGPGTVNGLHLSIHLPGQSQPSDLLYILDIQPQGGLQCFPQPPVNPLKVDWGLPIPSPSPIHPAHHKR
T1 sequence (P08514 891-1039 limits assumed): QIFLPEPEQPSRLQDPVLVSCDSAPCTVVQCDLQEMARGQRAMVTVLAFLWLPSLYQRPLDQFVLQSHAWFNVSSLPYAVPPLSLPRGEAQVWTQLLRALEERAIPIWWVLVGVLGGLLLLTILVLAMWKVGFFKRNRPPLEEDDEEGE
T1 sequence (P05106 27-788): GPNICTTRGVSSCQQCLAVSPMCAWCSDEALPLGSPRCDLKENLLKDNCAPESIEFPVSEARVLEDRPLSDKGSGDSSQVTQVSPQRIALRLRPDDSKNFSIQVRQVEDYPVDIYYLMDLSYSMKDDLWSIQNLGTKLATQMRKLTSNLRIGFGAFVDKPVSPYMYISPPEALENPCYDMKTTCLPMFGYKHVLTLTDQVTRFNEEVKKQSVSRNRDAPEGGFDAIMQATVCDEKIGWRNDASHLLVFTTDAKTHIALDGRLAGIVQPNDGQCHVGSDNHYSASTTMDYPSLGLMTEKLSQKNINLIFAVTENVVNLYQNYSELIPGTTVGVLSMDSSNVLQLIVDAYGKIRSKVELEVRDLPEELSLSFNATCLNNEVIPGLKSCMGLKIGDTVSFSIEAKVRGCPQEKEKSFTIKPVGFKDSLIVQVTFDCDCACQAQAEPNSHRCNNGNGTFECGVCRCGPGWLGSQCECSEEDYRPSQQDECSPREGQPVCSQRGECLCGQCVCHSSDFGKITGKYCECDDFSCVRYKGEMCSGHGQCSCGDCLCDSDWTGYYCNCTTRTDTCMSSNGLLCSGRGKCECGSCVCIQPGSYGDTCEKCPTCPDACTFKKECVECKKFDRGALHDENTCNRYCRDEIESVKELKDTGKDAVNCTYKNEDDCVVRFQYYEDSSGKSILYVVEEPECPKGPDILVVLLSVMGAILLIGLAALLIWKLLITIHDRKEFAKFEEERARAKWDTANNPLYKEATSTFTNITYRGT
Description: as §1, §2

[3] = Table 2, same manner as Example 17
[4] = 0.5 hr, read-out: platelet aggregation inhibitory rate (%), 0.5 hr
[5] = 1 hr, read-out: platelet aggregation inhibitory rate (%), 1 hr
[6] = 2 hrs, read-out: platelet aggregation inhibitory rate (%), 2 hrs
[7] = 4 hrs, read-out: platelet aggregation inhibitory rate (%), 4 hrs
[8] = 6 hrs, read-out: platelet aggregation inhibitory rate (%), 6 hrs
[9] = Table 3, same manner as Example 17

IC50 (platelet aggregation [1]; [3])	IC50 (human fibronectin)	IC50 (human vitronectin)	IC50 (human fibrinogen)	IC50 (platelet aggregation [1]; [9])	SMILES	inhibition in vivo at 0.1 mg/kg (platelet aggregation [2]; [4])	inhibition in vivo at 0.1 mg/kg (platelet aggregation [2]; [5])	inhibition in vivo at 0.1 mg/kg (platelet aggregation [2]; [6])	inhibition in vivo at 0.1 mg/kg (platelet aggregation [2]; [7])	inhibition in vivo at 0.1 mg/kg (platelet aggregation [2]; [8])
15 nM	310 nM	240 nM	2.2 nM		N=C(N)c1ccc(C(=O)NCCC(=O)NC[C@H](NS(=O)(=O)c2ccccc2C(F)(F)F)C(=O)O)cc1 [Example 21, (2S)-3-(3-(4-amidinobenzoylamino)propanoylamino)-2-(2-trifluoromethyl)benzenesulfonylaminopropanoic Acid]	96%	99%	100%	100%	100%
57 nM	79 nM	500 nM	7.3 nM		N=C(N)c1ccc(C(=O)NCCC(=O)NC[C@H](NS(=O)(=O)c2cccc3ccccc23)C(=O)O)cc1 [Example 20]	76%	91%	99%	100%	100%
	95 nM	3500 nM	15 nM	93 nM	COc1ccc(S(=O)(=O)N[C@@H](CNC(=O)CC2CCN(c3ccc(C(=N)N)cc3)CC2)C(=O)O)cc1 [Example 93, (2S)-3-(2-(1-(4-amidinophenyl)-4-piperidyl)ethanoylamino)-2-(4-methoxy)benzenesulfonylaminopropanoic Acid]	4%	27%	69%	44%	12%
	20 nM	270 nM	4.8 nM	26 nM	N=C(N)c1ccc(OCCCCC(=O)NC[C@H](NS(=O)(=O)c2ccccc2[N+](=O)[O-])C(=O)O)cc1 [Example 85, (2S)-3-(5-(4-amidinophenoxy)pentanoylamino)-2-(2-nitro)benzenesulfonylaminopropanoic Acid]	36%	41%	44%	31%	17%
15 nM	41 nM	130 nM	2.2 nM		COc1ccc(S(=O)(=O)N[C@@H](CNC(=O)CCCCOc2ccc(C(=N)N)cc2)C(=O)O)cc1 [Example 63, (2S)-3-(5-(4-amidinophenoxy)pentanoylamino)-2-(4-methoxy)benzenesulfonylaminopropanoic Acid]	57%	48%	26%	3%	0%
	540 nM	3500 nM	22 nM	14 nM	Cc1ccccc1S(=O)(=O)N[C@@H](CNC(=O)CCNC(=O)c1ccc(C(=N)N)cc1)C(=O)O [Example 74, (2S)-3-(3-(4-amidinobenzoylamino)propanoylamino)-2-(2-methyl)benzenesulfonylaminopropanoic Acid]	92%	100%	100%	100%	100%
	390 nM	4900 nM	10 nM	17 nM	CCc1ccc(S(=O)(=O)N[C@@H](CNC(=O)CCNC(=O)c2ccc(C(=N)N)cc2)C(=O)O)cc1 [Example 80, (2S)-3-(3-(4-amidinobenzoylamino)propanoylamino)-2-(4-ethyl)benzenesulfonylaminopropanoic Acid]	100%	100%	75%	79%	74%
	54 nM	670 nM	6.7 nM	65 nM	N=C(N)c1ccc(C(=O)NCCC(=O)NC[C@H](NS(=O)(=O)c2ccccc2[N+](=O)[O-])C(=O)O)cc1 [Example 77, (2S)-3-(3-(4-amidinobenzoylamino)propanoylamino)-2-(2-nitro)benzenesulfonylaminopropanoic Acid]	100%	100%	100%	100%	97%
	110 nM	1600 nM	8.1 nM	34 nM	Cc1cccc(S(=O)(=O)N[C@@H](CNC(=O)CCNC(=O)c2ccc(C(=N)N)cc2)C(=O)O)c1 [Example 75, (2S)-3-(3-(4-amidinobenzoylamino)propanoylamino)-2-(3-methyl)benzenesulfonylaminopropanoic Acid]	74%	82%	100%	90%	74%
30 nM	47 nM	1200 nM	5 nM		Cc1cc(C)c(S(=O)(=O)N[C@@H](CNC(=O)CCNC(=O)c2ccc(C(=N)N)cc2)C(=O)O)c(C)c1 [Example 19, (2S)-3-(3-(4-amidinobenzoylamino)propanoylamino)-2-(2,4,6-trimethyl)benzenesulfonylaminopropanoic Acid]	86%	93%	91%	89%	91%
24 nM	25 nM	380 nM	1 nM		N=C(N)c1ccc(OCCCC(=O)NC[C@H](NS(=O)(=O)c2ccc(F)cc2)C(=O)O)cc1 [Example 61, (2S)-3-(4-(4-amidinophenoxy)butanoylamino)-2-(4-fluoro)benzenesulfonylaminopropanic Acid]	45%	32%	25%	48%	0%
	25 nM	160 nM	9 nM	16 nM	N=C(N)c1ccc(C(=O)NCCC(=O)NC[C@H](NS(=O)(=O)c2ccc(F)cc2)C(=O)O)cc1 [Example 78, (2S)-3-(3-(4-amidinobenzoylamino)propanoylamino)-2-(4-fluoro)benzenesulfonylaminopropanoic Acid]	99%	100%	100%	100%	100%
